The test system of series [1] is dendritic (JAWS II) and intestinal epithelial cells (SW480). In words: Cell viability during the 5 hour TLR4 expression experiment. Particulars: within the 5 hours of the experiment. The format is cell-based. Here is the method: SPA4 peptide (SEQ ID NO:3) inhibits the LPS-induced TLR4 expression in dendritic cells and SW480 intestinal (colonic) epithelial cells. […] Both of these cells constitutively express the TLR4 gene; the protein expression is low in dendritic cells under basal conditions. […] First, it was determined if the SPA4 peptide inhibits LPS-induced expression of TLR4 in these cells. […] After a total of 5 hours, TLR4 expression was studied by confocal microscopy.

Series [2] can be described thus: Binding to LPS by Limulus Amoebocyte Lysate (LAL) assay. More on the design: species or system Escherichia coli. The settings on record: 0-20 μM peptide; 0.01 ng/ml LPS; read at 6 and 12 minutes. Here is the method:
Binding of SPA4 peptide to LPS: The binding of SPA4 peptide to LPS was studied by LAL assay as per the method described by Giacometti et al. (2004). Briefly, 0-20 μM SPA4 peptide or polymyxin B (positive control) solutions were added to 0.01 ng/ml Escherichia coli O111:B4 LPS (supplied with the kit, Charles River Laboratories International, Inc., Wilmington, Mass.) in the wells of a 96 well plate and incubated at 37° C. for 40 minutes. Fifty μl of LAL substrate solution was then added to each well, and the plate was incubated for another 10 minutes. Finally, substrate-buffer solution was added, and optical density readings (OD) were obtained at 405 nm after 0, 6 and 12 minutes of addition of substrate. AOD values for SPA4 peptide or polymyxin B incubated with LPS (ΔODtreatment), LPS alone (ΔODLPS) and blank (ΔODBlank) were calculated by subtracting the OD values obtained at 6 or 12 minutes from those obtained at 0 minutes. Percent binding of SPA4 peptide and polymyxin B was calculated at 6 and 12 minutes of reaction using following formula: […]

In a further series the test system is NF-κB. In words: NF-κB luciferase reporter activity in LPS-challenged SW480 cells. Format: cell-based, human. The settings on record: LPS 1.0 μg/ml. Here is the method:
NF-κB activity: Since binding of LPS to TLR4 activates NF-κB through MYD88-dependent and independent pathways, the effects of SPA4 peptide on basal and LPS-induced NF-κB activity were investigated in SW480 cells transfected with a dominant negative construct of MYD88 (MYD88DN) and NF-κB firefly-luciferase reporter plasmid DNA. Both the short-(1 hour) and long-term (5 hours) effects of the SPA4 peptide on NF-κB activity were studied.
The SW480 cells were transiently-transfected with NF-κB firefly-luciferase reporter plasmid pGL4.32 (luc2P/NF-κB-RE/Hygro, Promega, WI; provided by Dr. Kelly Standifer, Department of Pharmaceutical Sciences, University of Oklahoma Health Sciences Center, Oklahoma City, Okla.) and MYD88-dominant negative plasmid construct (MYD88DN, provided by Dr. Ruslan Medzhitov, Yale University, CT). MYD88 dominant negative plasmid DNA construct lacked the death domain and intermediate domain (Medzhitov et al., 1998). Briefly, NF-κB-Luciferase reporter and MYD88-dominant negative plasmids (1.0 μg each) were mixed with 6 μl of Fugene HD reagent (Roche, Ind.) in 92 μl of serum-free low-glucose DMEM medium (Invitrogen, CA), and incubated for 20 minutes at room temperature. The transfection-mix was then added to the SW480 cells. The SW480 cells transfected with a plasmid DNA construct expressing enhanced green fluorescent protein (pHYG-EGFP; Clontech, CA) were observed under Leica DM4000B fluorescent microscope. The transfection efficiency was calculated as percent of cells expressing EGFP over total number of cells in the brightfield channel. […]
After completion of the incubation period, the medium supernatants were removed and cells were washed with room-temperature DPBS. […] The firefly-luciferase activity (measurement of NF-κB activity) was measured using the luciferase reporter assay system (Promega, Fitchburg, Wis.). Briefly, 50 μl of luciferase assay reagent was added to the 20 μl cell lysate by automated dispenser of Synergy HT multi-mode microplate reader (Biotek, Winooski, Vt.), and luminescence was read within 10 seconds. […]
(In general: Reporter assays use an easily measured gene product as a stand-in for the process of interest.)

The subject of series [3] is primary adult baboon lung DCs and fetal baboon lung DC-precursor cells. In words: TNF-α secretion against E. coli by baboon lung DCs (ELISA). The format is cell-based. How it is done:
After confirming that the fluorescence is of phagocytosed bioparticles, comprehensive experiments were performed in presence and absence of effector molecules (SP-A and TLR4-MD2 proteins). The cells were pulsed with purified, native baboon lung SP-A and recombinant human TLR4-MD2 or MD2 proteins (RnD Systems, MN) for an hour prior to phagocytosis assay with pHrodo-conjugated, heat-killed E. coli K12 bioparticles (Invitrogen-Molecular Probes, CA). MD2 protein was also included, because SP-A is known to interact with MD2, and it was questioned if MD2 can influence the immune functions of DC-population. The assay was performed in serum-free Opti-MEM medium (Invitrogen, CA), as described by the manufacturer (Invitrogen-Molecular Probes, CA). The assay mixtures were incubated for another 3 hours at 37° C. in 5% CO2 incubator. The fluorescence readings were taken at 550 nm excitation and 600 nm emission wavelengths using SpectraMax M2 spectrofluorometer (Molecular Devices, CA).
Cytokine (TNF-α) measurement: The TNF-α levels were measured in cell-free supernatants by enzyme linked immunosorbent assay (ELISA) using a commercially available kit (eBioscience, CA), as per the manufacturer's instructions. Briefly, the microwells of a 96 well plate were coated with diluted purified anti-human TNF-α antibody. The wells were washed, and nonspecific sites were blocked. Diluted recombinant human TNF-α (7.8-500 pg/ml standard) and cell-free-supernatant (1:10) were added to the antibody-coated wells, and the plate was incubated overnight at 4° C. The next day, the plate was washed and incubated with biotin-conjugated anti-human TNF-α antibody followed by avidin-horseradish peroxidase and substrate solution. The reaction was stopped by adding 2 N H2SO4 and read at 450 nm (Molecular Devices, CA).
Background: An ELISA detects its analyte on a solid surface through an enzyme-linked reagent.

The values below come from patent publication US8623832B2, “Peptide compositions that bind TLR-4” (The Board of Regents of the University of Oklahoma, priority 2011, dated 2014).

Where no end group is shown, it is not given here.

With “GDFRYSDGTPVNYTNWYRGE [SPA4, GDFRYSDGT PVNYTNWYRGE]”, in series [1], the viability of cells result is “does not affect the viability of cells”. In series [2], the “binding to LPS” value is reported as “does not bind to LPS”. For the same substance, the “LPS induced NF-κB activity at 9 hours” value in the series on NF-κB (SPA4 1, 10 or 50 μM, long-term) is on record as “not significantly inhibited”. The “LPS induced-NF-κB activity after 5 hours” value in the series on NF-κB (SPA4 10 and 50 μM, short-term) is “reduces”. Further, in the series on NF-κB (MYD88DN), the “NF-κB activity in cells transfected with dominant negative construct of MYD88” value is listed as “did not further reduce”.
As to “SP-A: native surfactant protein-A purified from bronchioalveolar lavage fluid of a normal healthy adult baboon (MWLCPLALTLTLMAASGAACEVKDVCVGSPGIPGTPGSHGLPGRDGRDGVKGDPGPP; listed as Papio cynocephalus)”, in series [3] (3 hours phagocytosis reaction, protein added alone), the “secretion of TNF-α by DCs in response to E. coli” value is “did not induce the secretion of TNF-α”. The “TLR4-MD2 protein-induced TNF-α release against E. coli” value in series [3] (SP-A and TLR4-MD2 added together, 3 hours with E. coli) is recorded as “reduces”.
